Legend:
[1] = system: Human immunodeficiency virus 1; assay: Inhibitory activity was determined by measuring accumulation of viral RNA transcript after infection of cells with HIV-1; format: functional
[2] = Translatory activity was evaluated as ratio of Ki and IC90 *10e-5; format: functional
[3] = biological target: Human immunodeficiency virus type 1 protease (Human immunodeficiency virus 1, UniProt Q72874); assay: Binding affinity for HIV protease

Cc1ccc(C[C@@H]2[C@H](O)[C@@H](O)[C@@H](Cc3ccc(C)cc3)N(Cc3ccc4[nH]nc(N)c4c3)C(=O)N2Cc2ccc3[nH]nc(N)c3c2)cc1
IC90 [1]: 780 nM
Translation [2]: 8
Ki [3]: 0.061 nM

CCCCc1ccc(C[C@@H]2[C@H](O)[C@@H](O)[C@@H](Cc3ccc(CCCC)cc3)N(Cc3ccc4[nH]nc(N)c4c3)C(=O)N2Cc2ccc3[nH]nc(N)c3c2)cc1
IC90 [1]: 180 nM
Translation [2]: 94
Ki [3]: 0.17 nM

Cc1cc(C)cc(C[C@@H]2[C@H](O)[C@@H](O)[C@@H](Cc3cc(C)cc(C)c3)N(Cc3ccc4[nH]nc(N)c4c3)C(=O)N2Cc2ccc3[nH]nc(N)c3c2)c1
IC90 [1]: 540 nM
Translation [2]: 12
Ki [3]: 0.067 nM

Cc1ccc(C)c(C[C@@H]2[C@H](O)[C@@H](O)[C@@H](Cc3cc(C)ccc3C)N(Cc3ccc4[nH]nc(N)c4c3)C(=O)N2Cc2ccc3[nH]nc(N)c3c2)c1
IC90 [1]: 300 nM
Translation [2]: 11
Ki [3]: 0.034 nM

CCc1ccc(C[C@@H]2[C@H](O)[C@@H](O)[C@@H](Cc3ccc(CC)cc3)N(Cc3ccc4[nH]nc(N)c4c3)C(=O)N2Cc2ccc3[nH]nc(N)c3c2)cc1
IC90 [1]: 300 nM
Translation [2]: 23
Ki [3]: 0.068 nM

Nc1n[nH]c2ccc(CN3C(=O)N(Cc4ccc5[nH]nc(N)c5c4)[C@H](Cc4ccccc4)[C@H](O)[C@@H](O)[C@H]3Cc3ccccc3)cc12
Ki [3]: < 0.01 nM

Nc1[nH]nc2ccc(CN3C(=O)N(Cc4ccc5n[nH]c(N)c5c4)[C@H](Cc4ccccc4)[C@H](O)[C@@H](O)[C@H]3Cc3ccccc3)cc12
IC90 [1]: 2760 nM
Translation [2]: < 0.36

CC(C)(C)c1ccc(C[C@@H]2[C@H](O)[C@@H](O)[C@@H](Cc3ccc(C(C)(C)C)cc3)N(Cc3ccc4[nH]nc(N)c4c3)C(=O)N2Cc2ccc3[nH]nc(N)c3c2)cc1
IC90 [1]: 100 nM
Translation [2]: 190
Ki [3]: 0.19 nM

CCCc1ccc(C[C@@H]2[C@H](O)[C@@H](O)[C@@H](Cc3ccc(CCC)cc3)N(Cc3ccc4[nH]nc(N)c4c3)C(=O)N2Cc2ccc3[nH]nc(N)c3c2)cc1
IC90 [1]: 290 nM
Translation [2]: 23
Ki [3]: 0.068 nM

CC(C)c1ccc(C[C@@H]2[C@H](O)[C@@H](O)[C@@H](Cc3ccc(C(C)C)cc3)N(Cc3ccc4[nH]nc(N)c4c3)C(=O)N2Cc2ccc3[nH]nc(N)c3c2)cc1
IC90 [1]: 410 nM
Translation [2]: 46
Ki [3]: 0.19 nM

Cc1cccc(C[C@@H]2[C@H](O)[C@@H](O)[C@@H](Cc3cccc(C)c3)N(Cc3ccc4[nH]nc(N)c4c3)C(=O)N2Cc2ccc3[nH]nc(N)c3c2)c1
IC90 [1]: 740 nM
Translation [2]: 1.5
Ki [3]: 0.011 nM

CC(C)(C)c1cccc(C[C@@H]2[C@H](O)[C@@H](O)[C@@H](Cc3cccc(C(C)(C)C)c3)N(Cc3ccc4[nH]nc(N)c4c3)C(=O)N2Cc2ccc3[nH]nc(N)c3c2)c1
IC90 [1]: 390 nM
Translation [2]: 54
Ki [3]: 0.21 nM
